Assay [1] addresses T1, human CRTH2 (Homo sapiens, UniProt Q9Y5Y4).
T1 sequence (Q9Y5Y4 1-395): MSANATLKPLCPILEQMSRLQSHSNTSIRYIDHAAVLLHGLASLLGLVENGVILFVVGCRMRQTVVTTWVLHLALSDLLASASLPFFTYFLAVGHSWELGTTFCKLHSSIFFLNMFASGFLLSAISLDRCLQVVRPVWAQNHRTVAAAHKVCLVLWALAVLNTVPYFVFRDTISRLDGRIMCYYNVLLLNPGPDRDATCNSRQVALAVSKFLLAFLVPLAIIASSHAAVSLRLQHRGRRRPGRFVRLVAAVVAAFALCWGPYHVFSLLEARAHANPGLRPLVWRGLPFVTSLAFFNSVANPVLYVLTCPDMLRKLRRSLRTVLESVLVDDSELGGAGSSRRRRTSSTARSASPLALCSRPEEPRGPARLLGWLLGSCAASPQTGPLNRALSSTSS
Briefly: CRTH2 fluorescent imaging assay (intracellular calcium, antagonist mode). The assay is classed as cell-based. Further details: expressed in transfected cells; host or cells: HT1080-hCRTH2. The conditions noted are these: HT1080-hCRTH2 cells; block of calcium increase caused by 500 nM PGD2. The protocol:
The ability of the disclosed compounds to act as agonists for the hCRTH2 receptor was determined by their ability to cause increases in intracellular calcium via binding to the CRTH2 receptor.
Assays were performed on HEK 293EBNA-hCRTH2 cells that had been grown in DMEM media containing 10% FBS, […] puromycin and 1% penicillin/streptomycin/glutamine (PSG) at 37° C. in 5% CO2 or on HT1080-hCRTH2 cells (a HT1080 cell line stably expressing human CRTH2) that had been grown in alphaMEM media containing 10% FBS, 500 μg/ml hygromycin, 200 nM methotrexate and 1% PSG at 37° C. in 5% CO2.
For the assay, HEK 293EBNA-hCRTH2 cells or HT1080-hCRTH2 cells were grown to approximately 90% confluency and then dislodged from the plate with Trypsin-EDTA, resuspended in DMEM media, seeded in 384 well plates at 2×10^4 cells per well and incubated overnight at 37° C. The cells were loaded with a calcium sensing dye by removing the growth media and replacing it with 30 μL of dye loading Ringer's buffer (136 mM […], 5.4 mM D-Glucose, 20 mM Hepes pH 7.4, 2.1 mM MgCl2, 0.8 mM CaCl2, 0.2% BSA with 1× Calcium3Dye (Molecular Devices) and 2.5 mM Probenecid (Sigma)) per well. The cells were incubated at 37° C. for 1 hour to allow the dye to enter the cells. Compounds were serially diluted in DMSO and then diluted to 4× their final concentration with Ringer's buffer. The compounds were added to a 384 well plate in quadruplicate. In addition to test compounds, several wells contained Ringer's buffer with DMSO. These wells serve as control wells. 10 μL was transferred from compound/control plate to the plate containing cells loaded with dye by a fluorescent imaging plate reader (Molecular Devices). The fluorescence was measured every 4 seconds for 4 minutes. These measurements indicated the level of intracellular calcium. Increases in fluorescence relative to wells containing buffer only indicated an agonist effect of the compound. Measurement at various compound concentrations allowed one to determine the EC50 for these compounds. Following the 4 minute incubation with compound, 20 μL of Ringer's buffer with either 10 nM or 500 nM PGD2 (approximate EC75 for PGD2 in HEK 293EBNA-hCRTH2 cells and HT1080-hCRTH2 cells, respectively) was added to the wells. Inhibition by the compounds of the calcium response due to antagonism of PGD2 action on CRTH2 is reflected by a decrease in fluorescent signal relative to wells containing no compound. The fluorescence was measured every 2 seconds for 10 seconds before addition of PGD2 and every 2 seconds for 110 seconds following addition. Measurement at various compound concentrations allowed one to determine the IC50 for these compounds. EC50 and IC50 values were determined from the experimental results by nonlinear regression using the Prism 4.0 software.
For orientation: A change in cytosolic calcium serves as a functional read-out for many receptors and channels.

Assay [2] concerns the target T1, human CRTH2. Briefly: CRTH-2 binding assay (scintillation proximity assay, inhibition of 3H-PGD2 binding). Further details: expressed in transfected cells; host or cells: HEK 293EBNA-hCRTH2 (membrane preparation). The conditions noted are these: inhibition of 3H-PGD2 (3.6 nM) binding to HEK 293EBNA-hCRTH2 membranes; Ki calculated from IC50. Summed up:
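Membranes from HEK 293EBNA cells stably expressing human CRTH2 (~20 μg protein/100 μL) with SPA beads and 3.6 nM 3H-PGD2 in 10 mM Hepes pH 7.4, 1 mM EDTA, 10 mM MnCl2, glycerol, 2 h at room temperature, seven compound concentrations in triplicate. Nonspecific binding defined with indomethacin; IC50 converted to Ki using Kd and radioligand concentration.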

A word on the IC50: it is the concentration needed to halve the response being measured. As usually defined, the Ki is the equilibrium dissociation constant of an inhibitor or competing ligand from its target.

Take `Cc1c(-c2nn(Cc3ccccc3)c(=O)c3ccccc23)c2cc(Cl)ccc2n1CC(=O)O` [Example 16, [3-(3-Benzyl-4-oxo-3,4-dihydro-phthalazin-1-yl)-5-chloro-2-methyl-indol-1-yl]-acetic acid]: the IC50 in assay [1] worked out at 19 nM. For the same compound, the Ki in assay [2] was less than 100 nM.

For the compound `Cc1c(-c2nn(Cc3ccc(F)cc3)c(=O)c3ccccc23)c2cc(Cl)ccc2n1CC(=O)O` [Example 24, {5-Chloro-3-[3-(4-fluoro-benzyl)-4-oxo-3,4-dihydro-phthalazin-1-yl]-2-methyl-indol-1-yl}-acetic acid], the IC50 in assay [1] amounted to 60 nM. In assay [2], the inhibition constant (Ki) was less than 100 nM.

For the compound `Cc1noc(C)c1CN1C(c2c(C)n(CC(=O)O)c3ccccc23)c2ccc(F)cc2S1(=O)=O` (centres unmarked) [Example 62, {3-[2-(3,5-Dimethyl-isoxazol-4-ylmethyl)-6-fluoro-1,1-dioxo-2,3-dihydro-1H-1λ^6-benzo[d]isothiazol-3-yl]-2-methyl-indol-1-yl}-acetic acid], in assay [1], the IC50 was 22 nM. In assay [2], the Ki is less than 100 nM.

On to `Cc1onc(-c2ccccc2)c1CN1C(c2c(C)n(CC(=O)O)c3ccc(Cl)cc23)c2ccccc2S1(=O)=O` (centres unmarked) [Example 61, {5-Chloro-2-methyl-3-[2-(5-methyl-3-phenyl-isoxazol-4-ylmethyl)-1,1-dioxo-2,3-dihydro-1H-1λ^6-benzo[d]isothiazol-3-yl]-indol-1-yl}-acetic acid], for which the IC50 in assay [1] amounted to 170 nM. Further, the Ki in assay [2] was less than 100 nM.

The values are drawn from patent US7981912B2, “Indole acetic acids exhibiting CRTH2 receptor antagonism and uses thereof” (Wyeth LLC, priority 2004, dated 2011).
